Read-outs that look alike come from different tables or passages of the source.

Broadly, the EC50 is the concentration that produces a half-maximal response. Broadly, the IC50 is the point on the concentration scale where inhibition reaches its midpoint.

The subject of assay [1] is TNFα. Nature of the assay: Cot Monocyte TNFα Cell Based Assay.
The target in assay [2] is Human Cot (Homo sapiens (Human), UniProt P41279). Put plainly: High Throughput Cot Biochemical Assay. The following applies: Cot HTRF (TR-FRET) biochemical assay.
Chain of Human Cot (P41279 30-397): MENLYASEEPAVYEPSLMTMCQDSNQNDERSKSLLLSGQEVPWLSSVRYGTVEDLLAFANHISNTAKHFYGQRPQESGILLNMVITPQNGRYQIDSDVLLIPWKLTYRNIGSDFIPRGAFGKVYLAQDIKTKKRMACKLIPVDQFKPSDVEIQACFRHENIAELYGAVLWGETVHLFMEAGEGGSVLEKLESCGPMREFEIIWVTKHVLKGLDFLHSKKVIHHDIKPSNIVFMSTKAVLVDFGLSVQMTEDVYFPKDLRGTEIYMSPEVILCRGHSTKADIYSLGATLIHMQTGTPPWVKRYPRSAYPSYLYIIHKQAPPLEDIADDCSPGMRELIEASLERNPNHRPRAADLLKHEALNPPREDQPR
Description: Human Cot enzyme activity was measured using KinEASE (Cisbio), a time-resolved fluorescence resonance energy transfer (TR-FRET) immunoassay. In this assay, Cot-catalyzes the phosporylation of a XL665-labeled peptide substrate. Europium conjugated phospho-tyrosine specific antibody binds the resulting phosphorylated peptide. Formation of phosphorylated peptide is quantified by TR-FRET with Europium as the donor and XL665 the acceptor in a 2-step endpoint assay. […] In brief, test compounds serially diluted in DMSO were delivered into Proxy white, low volume, 384 well plates using the Echo 550 acoustic liquid dispenser (Labcyte®). Cot enzyme and substrates were dispensed into assay plates using a Multi-Flo (Bio-Tek Instruments). The standard 5 μL reaction mixture contained 400 μM ATP, 1 μM STK3 peptide, 5 nM of Cot in reaction buffer (10 mM MOPS, pH 7.0, 0.02% NaN3, 0.5 mg/mL BSA, 10 mM MgOAc, 1 mM DTT, 0.025% NP-40, 1.5% glycerol) and 0.1% DMSO.
[3] abbreviates: Homo sapiens, Monocyte, read-out: EC50 TNF, LPS-stimulated human monocytes, TNFα.
[4] abbreviates: read-out: EC50 TNF, LPS-stimulated human monocytes, TNFα.

As to `CC(C)(C)CNc1c(C#N)cnc2c(C#N)cc(N[C@H](c3cn(C4(C(F)(F)F)CC4)nn3)c3ccc(C#N)c4cnccc34)cc12` [Example 670, (S)-6-(((8-cyanoisoquinolin-5-yl)(1-(1-(trifluoromethyl)cyclopropyl)-1H-1,2,3-triazol-4-yl)methyl)amino)-4-(neopentylamino)quinoline-3,8-dicarbonitrile], the EC50 in assay [1] (setting [3]) turned out to be 102 nM. Further, the midpoint of inhibition in assay [2] (IC50 HTRF), the IC50, lay at 5 nM.

For `CC(C)(C)CNc1c(C#N)cnc2c(C#N)cc(N[C@H](c3cn(C4(C(F)F)CC4)nn3)c3ccc(F)c4ncccc34)cc12` [Example 671], the EC50 in assay [1] (setting [4]) stood at 32 nM. The half-maximal inhibitory concentration (IC50) in assay [2] (read-out: IC50 HTRF) amounted to 2 nM.

On to `CC(C)(C)CNc1c(C#N)cnc2c(C#N)cc(N[C@H](c3cn(C4(C(F)F)CC4)nn3)c3ccc(F)c4cnccc34)cc12` [Example 672], for which the EC50 in assay [1] (setting [4]) was 22 nM. Further, the half-inhibitory concentration (IC50) in assay [2] (read-out: IC50 HTRF) came out at 2 nM.

Regarding `CC(C)(C)CNc1c(C#N)cnc2c(C#N)cc(N[C@H](c3cn(C4(C(F)(F)F)CC4)nn3)c3cncc4ccccc34)cc12` [Example 673, (S)-6-((isoquinolin-4-yl(1-(1-(trifluoromethyl)cyclopropyl)-1H-1,2,3-triazol-4-yl)methyl)amino)-4-(neopentylamino)quinoline-3,8-dicarbonitrile], the EC50 in assay [1] (setting [3]) stood at 808 nM. For the same molecule, in assay [2] (IC50 HTRF), the IC50 is 142 nM.

`Cc1nc([C@H](Nc2cc(C#N)c3ncc(C#N)c(NCC(C)(C)C)c3c2)c2cn(C3(C(F)F)CC3)nn2)c(C)o1` [Example 674, (S)-6-(((1-(1-(difluoromethyl)-cyclopropyl)-1H-1,2,3-triazol-4-yl)(2,5-dimethyloxazol-4-yl)methyl)amino)-4-(neopentylamino)quinoline-3,8-dicarbonitrile]: the EC50 in assay [1] (setting [3]) was found to be 301 nM. In addition, in assay [2] (IC50 HTRF), the IC50 came out at 22 nM.

Take `Cc1nc(F)ccc1[C@H](Nc1cc(C#N)c2ncc(C#N)c(N[C@@H]3CCOCC3(C)C)c2c1)c1cn(C2(C3CC3)CC2)nn1` [Example 675]: the EC50 in assay [1] (setting [4]) came out at 7 nM. Besides, the IC50 in assay [2] (read-out: IC50 HTRF) was 1 nM.

As to `CC(C)(C)CNc1c(C#N)cnc2c(Cl)cc(N[C@H](c3cn(C4(C(F)(F)F)CC4)nn3)c3cccc4c(=O)[nH]ccc34)cc12` [Example 676, (S)-8-chloro-4-(neopentylamino)-6-(((1-oxo-1,2-dihydroisoquinolin-5-yl)(1-(1-(trifluoromethyl)cyclopropyl)-1H-1,2,3-triazol-4-yl)methyl)amino)quinoline-3-carbonitrile], the EC50 in assay [1] (setting [3]) came out at 112 nM. In assay [2] (IC50 HTRF), this molecule returned an IC50 of 6 nM.

With `Cn1nccc1[C@H](Nc1cc(C#N)c2ncc(C#N)c(NCC(C)(C)C)c2c1)c1cn(C2(C(F)F)CC2)nn1` [Example 677, (S)-6-(((1-(l-(difluoromethyl)-cyclopropyl)-1H-1,2,3-triazol-4-yl)(1-methyl-1H-pyrazol-5-yl)methyl)amino)-4-(neopentylamino)quinoline-3,8-dicarbonitrile], the EC50 in assay [1] (setting [4]) amounted to 133 nM. For the same molecule, in assay [2] (read-out: IC50 HTRF), the IC50 was 4 nM.

In the case of `Cn1nccc1[C@H](Nc1cc(C#N)c2ncc(C#N)c(NCC(C)(C)C)c2c1)c1cn(C2(C(F)(F)F)CC2)nn1` [Example 678, (S)-6-(((1-methyl-1H-pyrazol-5-yl)(1-(1-(trifluoromethyl)cyclopropyl)-1H-1,2,3-triazol-4-yl)methyl)amino)-4-(neopentylamino)quinoline-3,8-dicarbonitrile], in assay [1] (setting [3]), the EC50 is 131 nM. In addition, in assay [2] (IC50 HTRF), half-maximal inhibition (IC50) was put at 5 nM.

Take `Cc1nc(F)ccc1[C@H](Nc1cc(C#N)c2ncc(C#N)c(NCC(C)(C)C)c2c1)c1nnn(C2CC2)c1Cl` [Example 680, (S)-6-(((5-chloro-1-cyclopropyl-1H-1,2,3-triazol-4-yl)(6-fluoro-2-methylpyridin-3-yl)methyl)amino)-4-(neopentylamino)quinoline-3,8-dicarbonitrile]: the EC50 in assay [1] (setting [3]) worked out at 98 nM. In addition, it took 3 nM to reach half-maximal inhibition in assay [2] (IC50 HTRF) (IC50).

For `Cc1nc(F)ccc1[C@H](Nc1cc(C#N)c2ncc(C#N)c(NCC(C)(C)C)c2c1)c1nnn(C2CC2)c1F` [Example 681, (S)-6-(((1-cyclopropyl-5-fluoro-1H-1,2,3-triazol-4-yl)(6-fluoro-2-methylpyridin-3-yl)methyl)amino)-4-(neopentylamino)quinoline-3,8-dicarbonitrile], in assay [1] (setting [3]), the EC50 turned out to be 26 nM. In addition, half-maximal inhibition in assay [2] (IC50 HTRF) (IC50) required 2 nM.

Take `CC(C)(C)CNc1c(C#N)cnc2c(Cl)cc(N[C@H](c3cn(C4(C5CC5)CC4)nn3)c3cccc4cnccc34)cc12` [Example 682, (S)-6-(((4-(1-(1-bi(cyclopropan)]-1-yl)-1H-1,2,3-triazol-4-yl)(isoquinolin-5-yl)methyl)amino)-8-chloro-4-(neopentylamino)quinoline-3-carbonitrile]: in assay [1] (setting [4]), the EC50 came out at 66 nM. In assay [2] (read-out: IC50 HTRF), the IC50 was found to be 7 nM.

As to `Cc1ccc([C@H](Nc2cc(Cl)c3ncc(C#N)c(NCC(C)(C)C)c3c2)c2cn(C3(C(F)(F)F)CC3)nn2)c(F)n1` [Example 688, (S)-8-chloro-6-(((2-fluoro-6-methylpyridin-3-yl)(1-(1-(trifluoromethyl)-cyclopropyl)-1H-1,2,3-triazol-4-yl)methyl)amino)-4-(neopentylamino)quinoline-3-carbonitrile], in assay [1] (setting [3]), the EC50 was found to be 437 nM. This molecule had an IC50 in assay [2] (IC50 HTRF) of 30 nM.

Take `Cc1ccc([C@H](Nc2cc(C#N)c3ncc(C#N)c(NCC(C)(C)C)c3c2)c2cn(C3(C(F)(F)F)CC3)nn2)c(C)n1` [Example 689, (S)-6-(((2,6-dimethylpyridin-3-yl)(1-(1′-(trifluoromethyl)cyclopropyl)-1H-1,2,3-triazol-4-yl)methyl)amino)-4-(neopentylamino)quinoline-3,8-dicarbonitrile]: in assay [1] (setting [4]), the EC50 is 81 nM. In assay [2] (read-out: IC50 HTRF), the IC50 was 9 nM.

As for `Cc1ccc([C@H](Nc2cc(C#N)c3ncc(C#N)c(NCC(C)(C)C)c3c2)c2cn(C3(C(F)(F)F)CC3)nn2)c(F)n1` [Example 690, (S)-6-(((2-fluoro-6-methylpyridin-3-yl)(1-(1-(trifluoromethyl)cyclopropyl)-1H-1,2,3-triazol-4-yl)methyl)amino)-4-(neopentylamino)quinoline-3,8-dicarbonitrile], in assay [1] (setting [3]), the EC50 was 250 nM. Further, the IC50 in assay [2] (IC50 HTRF) was determined as 21 nM.

`CC(C)(C)CNc1c(C#N)cnc2c(Cl)cc(N[C@H](c3cn(C4(C5CC5)CC4)nn3)c3cccc4ncccc34)cc12` [Example 691, (S)-6-(((1-([1,1′-bi(cyclopropan)]-1-yl)-1H-1,2,3-triazol-4-yl)(quinolin-5-yl)methyl)amino)-8-chloro-4-(neopentylamino)quinoline-3-carbonitrile]: the EC50 in assay [1] (setting [3]) stood at 66 nM. The molecule further had an IC50 in assay [2] (IC50 HTRF) of 6 nM.

Turning to `CC(C)(C)CNc1c(C#N)cnc2c(Cl)cc(N[C@H](c3cn([C@@H]4C[C@@H]4F)nn3)c3cccc4ncccc34)cc12` [Example 692, 8-chloro-6-(((SH l-((lR,2S)-2-fluorocyclopropyl)-1H-1,2,3-triazol-4-yl)(quinolin-5-yl)methyl)amino)-4-(neopentylamino)quinoline-3-carbonitrile], the EC50 in assay [1] (setting [4]) was determined as 38 nM. Besides, the IC50 in assay [2] (read-out: IC50 HTRF) turned out to be 3 nM.

In the case of `CC(C)(C)CNc1c(C#N)cnc2c(Cl)cc(N[C@H](c3cn(C(C)(C)CF)nn3)c3cccc4ncccc34)cc12` [Example 694, (S)-8-chloro-6-(((1-(1-fluoro-2-methylpropan-2-yl)-1H-1,2,3-triazol-4-yl)(quinolin-5-yl)methyl)amino)-4-(neopentylamino)quinoline-3-carbonitrile], in assay [1] (setting [3]), the EC50 was 84 nM. In assay [2] (IC50 HTRF), this molecule gave an IC50 of 7 nM.

(Values after patent publication US11066414B2, “Cot modulators and methods of use thereof” (Gilead Sciences, Inc., priority 2015, dated 2021).)
